Results published in patent publication EP1108430A1, “CALCIUM CHANNEL ANTAGONISTS” (Nippon Shinyaku Co., Ltd., priority 1998, dated 2000).

Assays:
[1] = test system: dopamine release from the rat striatum; assay: In vivo dopamine release from the striatum (microdialysis); conditions: for effect on dopamine release: rat, in vivo
Procedure: The release of dopamine from the rat striatum was measured by the in vivo microdialysis method. A microdialysis probe fitted with a microinjection cannula was inserted into the striatum of an 8∼10·week·old male SD rat and the striatum was perfused with Ringer's solution at a rate of 2 µl/min.
Beginning 2 hours after the start of perfusion, the perfusate was recovered at a 20-minute interval and the dopamine in each perfusate was measured with a high-performance liquid chromatography-electrochemical detector. The drug was perfused into the striatum through the microdialysis probe or microinjected into the striatum via the microinjection cannula. The effect of the drug on the basal dopamine release was evaluated by comparing the values before and after stimulation and a statistical analysis was made by Dunnett's test. Then, to evaluate the effect of Compound 1A on KCl·stimulated dopamine release, the amount of dopamine released in the presence of Compound 1A (10 µM) (ipsilateral striatum) was compared with the amount of KCl-stimulated dopamine release in the absence of Compound 1A (contralateral striatum) and the difference was statistically analyzed by paired t-test.
Therefore, with a microdialysis probe inserted bilaterally, one of the striatum was perfused with Ringer's solution (control side) and the other striatum with Compound 1A (10 µM). K^+ stimulation, 25∼80 mM, was consecutively given at a 20-minute interval.

[2] = test system: nitric oxide synthase (NOS); assay: cells; format: cell-based, mouse
[3] = molecular target: P/Q-type Ca^2+ channel (Mus musculus, UniProt P97445); assay: KCl-induced NOS activation in the presence of 1 µM nifedipine (response mediated by the P/Q-type channel); format: cell-based
[4] = test system: L-type Ca^2+ channel; format: cell-based, mouse; conditions: 3∼30 µM; Dunnett's test; Fig. 1
[5] = test system: mouse cerebral cortex-derived primary cultured neurons; assay: Elevation of intracellular calcium ion concentration under high-potassium stimulation (fura-2/AM 2-wavelength fluorescence); format: cell-based; conditions: 1 - 30 µM; added 10 minutes before the second stimulation; Fig. 2; Dunnett's test, p<0.01
Procedure: In the dish (the bottom opening fitted with cover glass) used for the measurement of calcium ion concentration, neurons on day 5 of culture were allowed to take up the fluorescent calcium probe fura-2/AM before determination. Thus, cultured neurons were incubated in 10 mM HEPES-NaOH buffer (pH 7.05) containing 10 µM fura-2/AM, 5.4 mM KC1, 130 mM NaCl, 2.5 mM CaCl2 and 5.5 mM D-glucose at 37°C for 30 minutes to let fura-2/AM taken up in the cells. Thereafter, incubation was further continued for 30 minutes, whereby the fura-2/AM taken up in the cells was converted to fura-2 by endogenous esterase activity. […]
The calcium ion concentration was determined by the method of Grynkiewicz et al. (1985). Thus, by fluorescent microscope-image processing, the calcium ion concentration was determined from the fluorescence intensities of fura - 2/Ca^2+ at the exciting wavelengths of 340 nm and 380 nm. Using Argus-50/CA System (Hamamatsu Photonics), a calibration curve constructed beforehand was transformed to find the intracellular calcium ion concentration from the fluorescence intensity ratio.
The high-potassium stimulus was given twice, 15 minutes apart and for 15 seconds each, and the ratio of increase in free calcium ion concentration in response to the stimulations was calculated. […]

Chain of P/Q-type Ca^2+ channel (P97445 whole entry): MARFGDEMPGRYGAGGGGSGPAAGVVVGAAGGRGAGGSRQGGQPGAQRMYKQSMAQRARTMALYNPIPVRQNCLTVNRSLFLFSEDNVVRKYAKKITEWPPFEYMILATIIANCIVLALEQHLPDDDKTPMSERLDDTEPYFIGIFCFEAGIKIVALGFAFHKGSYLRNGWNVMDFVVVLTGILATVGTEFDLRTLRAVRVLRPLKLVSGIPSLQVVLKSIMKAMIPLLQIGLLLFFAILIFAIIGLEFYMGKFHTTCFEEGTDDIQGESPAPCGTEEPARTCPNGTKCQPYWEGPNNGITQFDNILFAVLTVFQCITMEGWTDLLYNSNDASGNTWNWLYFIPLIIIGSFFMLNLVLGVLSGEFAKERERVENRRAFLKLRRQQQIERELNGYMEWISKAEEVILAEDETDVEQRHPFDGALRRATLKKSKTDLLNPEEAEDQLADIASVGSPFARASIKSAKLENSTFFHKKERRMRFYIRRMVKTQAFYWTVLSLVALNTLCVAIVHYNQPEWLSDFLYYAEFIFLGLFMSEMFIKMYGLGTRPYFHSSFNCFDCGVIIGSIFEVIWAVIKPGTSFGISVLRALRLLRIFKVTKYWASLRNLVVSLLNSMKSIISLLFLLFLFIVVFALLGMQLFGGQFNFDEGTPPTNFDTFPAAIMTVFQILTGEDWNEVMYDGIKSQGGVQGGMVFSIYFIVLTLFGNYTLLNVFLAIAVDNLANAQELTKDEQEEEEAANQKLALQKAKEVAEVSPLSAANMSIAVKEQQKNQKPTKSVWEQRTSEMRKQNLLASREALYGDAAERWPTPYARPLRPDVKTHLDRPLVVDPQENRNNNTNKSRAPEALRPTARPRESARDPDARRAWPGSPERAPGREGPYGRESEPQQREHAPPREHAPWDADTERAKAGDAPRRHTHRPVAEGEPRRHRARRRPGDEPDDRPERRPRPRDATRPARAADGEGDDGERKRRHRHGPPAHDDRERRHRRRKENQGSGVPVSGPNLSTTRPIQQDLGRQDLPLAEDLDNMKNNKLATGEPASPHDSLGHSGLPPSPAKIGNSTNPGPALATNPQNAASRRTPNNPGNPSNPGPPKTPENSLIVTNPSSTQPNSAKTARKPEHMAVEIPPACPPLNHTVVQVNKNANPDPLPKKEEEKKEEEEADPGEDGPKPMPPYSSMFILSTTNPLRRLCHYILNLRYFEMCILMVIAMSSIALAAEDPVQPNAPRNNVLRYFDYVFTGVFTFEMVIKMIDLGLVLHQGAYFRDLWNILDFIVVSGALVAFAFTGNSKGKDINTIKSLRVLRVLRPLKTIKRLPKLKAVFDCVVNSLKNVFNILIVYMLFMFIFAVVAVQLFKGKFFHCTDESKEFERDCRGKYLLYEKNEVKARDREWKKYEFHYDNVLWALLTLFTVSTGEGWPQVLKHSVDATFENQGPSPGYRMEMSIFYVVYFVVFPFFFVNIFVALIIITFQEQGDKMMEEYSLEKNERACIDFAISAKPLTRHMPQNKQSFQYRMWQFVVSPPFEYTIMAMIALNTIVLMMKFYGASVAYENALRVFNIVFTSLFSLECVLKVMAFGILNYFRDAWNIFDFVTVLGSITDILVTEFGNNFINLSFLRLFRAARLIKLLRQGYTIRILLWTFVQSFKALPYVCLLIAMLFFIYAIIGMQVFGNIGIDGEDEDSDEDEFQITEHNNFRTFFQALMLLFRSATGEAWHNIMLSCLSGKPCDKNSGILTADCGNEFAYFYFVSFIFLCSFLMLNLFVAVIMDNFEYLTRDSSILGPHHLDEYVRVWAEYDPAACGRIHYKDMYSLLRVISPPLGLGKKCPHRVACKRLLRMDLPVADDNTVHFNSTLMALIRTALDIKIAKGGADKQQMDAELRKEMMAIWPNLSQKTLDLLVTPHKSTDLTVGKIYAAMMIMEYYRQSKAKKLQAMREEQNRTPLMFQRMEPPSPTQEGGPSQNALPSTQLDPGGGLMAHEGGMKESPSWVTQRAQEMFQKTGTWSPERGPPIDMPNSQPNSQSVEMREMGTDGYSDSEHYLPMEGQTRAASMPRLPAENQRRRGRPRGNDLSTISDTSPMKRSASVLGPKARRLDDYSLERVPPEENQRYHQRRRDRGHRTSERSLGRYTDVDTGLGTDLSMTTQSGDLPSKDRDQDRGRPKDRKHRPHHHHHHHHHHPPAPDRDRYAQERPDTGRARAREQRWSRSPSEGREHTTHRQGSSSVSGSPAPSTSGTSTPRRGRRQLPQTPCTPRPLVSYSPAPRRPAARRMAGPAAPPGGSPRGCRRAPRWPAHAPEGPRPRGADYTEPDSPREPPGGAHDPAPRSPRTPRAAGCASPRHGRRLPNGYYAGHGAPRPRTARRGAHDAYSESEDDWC

Compound: ω-conotoxin GVIA [reference compound]
- effect on dopamine release [1]: significant decrease (p<0.01)
- effect on the NOS activation by KCl stimulation ([2]; 5 µM): substantially no effect

Compound: COC(=O)C1=C(C)NC(C)=C(C(=O)OC)C1c1ccccc1[N+](=O)[O-] [nifedipine]
- inhibition at 1 µM ([2]; Mus musculus, Neuron, read-out: inhibition of NOS activated on high-potassium stimulation of neurons): ~56%

Compound: Cc1nc(OCCCCCN2CCCCC2)cc(-c2ccc(F)cc2)n1 [Compound 1A, 4-(4-fluorophenyl)-2-methyl-6-(5-piperidinopentyloxy)pyrimidine]
- inhibition of dopamine release at 80 mM KCl ([1]; 10 µM perfused into the striatum, 80 mM KCl, Fig. 3, p<0.05, paired t-test): inhibited dopamine release significantly
- inhibitory effect on dopamine release under K^+ stimulation ([1]; 10 µM perfused into the striatum, K^+ stimulation 25∼80 mM at a 20-minute interval, versus contralateral control side): marked inhibitory effects on dopamine release with an increasing potassium concentration
- inhibition of the response mediated by the P/Q-type Ca^2+ channel (NOS activation in the presence of 1 µM nifedipine) ([3]; 10 µM): completely inhibited
- inhibition of the NOS activation in the presence of 1 µM nifedipine (the response mediated by the P/Q-type Ca^2+ channel) ([3]; 3∼30 µM, Dunnett's test, Fig. 1): significant (P<0.01) and concentration-dependent inhibitions
- inhibition of the NOS activation in the presence of 0.1 µM ω-agatoxin IVA (the response mediated by the L-type Ca^2+ channel) [4]: significant (P<0.01) and concentration-dependent inhibitions
- inhibition of the high-potassium-stimulated increase in intracellular calcium ion concentration [5]: inhibit the high-potassium-stimulated increase in intracellular calcium ion concentration in a concentration-dependent manner

Compound: ω-agatoxin IVA [reference compound]
- effect on dopamine release [1]: significant decrease (p<0.01)
- inhibition of NOS activated on high-potassium stimulation of neurons ([2]; 0.1 µM): about 53%
